Assay results as given in patent US20170348337A1, “MULTIFUNCTIONAL MEMBRANE-ACTIVE AMINOGLYCOSIDE-PEPTIDE CONJUGATES” (priority 2014, published 2017).

Legend:
[1] = tested on: E. coli Dh5α persisters; assay: persister cell plate killing assay; type: cell-based, Escherichia coli
Protocol: Procedure for preparing S. aureus SA113 and E. coli Dh5α persister cells were based on previous protocols. Cells from freshly streaked agar plates were inoculated in 1 mL TSB and incubated 16 h at 37° C. in a shaker incubator to obtain stationary phase cultures. Non-persister cells were eliminated by adding ampicillin to a final concentration of 100 μg/mL, followed by 3 h incubation at 37° C.
E. coli cells were pelleted (5000 rpm for 5 min), washed in M9 minimal media and resuspended in M9 minimal media to a final bacteria stock solution of 5×10^7 CFU/mL. 20 μL E. coli suspension was introduced into 180 μL M9 media containing various concentrations of antibiotic (Pentobra, tobramycin) in 96 well plates for a total of 10^6 CFU/well. The plates were sealed with parafilm, loaded onto microplate shakers and placed in a 37° C. incubator for 1.5 h. After incubation, 10-fold serial dilutions were made with M9 media. Half of each dilution (100 μL) was spotted onto LB agar plates and incubated overnight at 37° C. to yield visible colonies. The E. coli persister assays were performed in quadruplicate.
The bactericidal effects of Pentobra against persistent bacteria were investigated with plate killing assays. […]

[2] = tested on: MCP-1, MDC, IP-10 and IL-12p40 in human monocytes; assay: chemokine/cytokine gene expression in P. acnes-stimulated monocytes (real-time PCR); type: cell-based; conditions: 24 hrs co-treatment
Protocol: Peripheral blood mononuclear cells (PBMCs) were isolated from whole blood of normal healthy donors as approved by the Institutional Review Board at UCLA using Ficoll-Paque gradients (GE Healthcare, Piscataway, N.J.) and plated onto six-well tissue culture plates (20×10^6-30×10^6 per well) for 2 hours in RPMI 1640 medium (Invitrogen Life Technologies, Carlsbad, Calif.) supplemented with 1% fetal calf serum (Omega Scientific, Tarzana, Calif.). Nonadherent cells were removed by rigorously washing three times with RPMI. Adherent monocytes were stimulated (co-treated) with media or P. acnes in the presence of tobramycin or Pentobra in 10% fetal calf serum. P. acnes was used at an MOI of 0.5 and cells were cultured for 24 hours at 37° C.
Monocytes were stimulated with media or P. acnes in the presence of tobramycin or Pentobra. Total RNA was isolated using Trizol reagent (Invitrogen, Carlsbad, Calif.) following manufacturer's protocol and treated with RNase-free DNase. RNA concentration and quality were determined by spectrophotometry. RNA samples were reverse-transcribed to cDNA using iScript cDNA synthesis kit (Bio-Rad, Hercules, Calif.). Reactions were done at 25° C. for 5 minutes, 42° C. for 30 minutes and 85° C. for 5 minutes. Real-time PCR was applied using iQ SYBR Green supermix (Bio-Rad). Forty cycles were carried out at 95° C. for 5 minutes, then 95° C. for 10 seconds, 55° C. for 20 seconds, 72° C. for 20 seconds. GAPDH was used as a control. Gene expression level was quantified by the comparative method 2-ΔΔCT.
Monocytes were cultured and evaluated for cytokine and chemokine expression by ELISA and real time PCR after 24 hrs.

NC[C@H]1O[C@H](O[C@H]2[C@H](O)[C@@H](O[C@H]3O[C@H](CO)[C@@H](O)[C@H](N)[C@H]3O)[C@H](N)C[C@@H]2N)[C@H](N)C[C@@H]1O [tobramycin]
killing activity against persister cells ([1]; 1.5 h, entire range of tested concentrations): poor activity | activity against persisters at high concentration ([1]; >50 μM): ineffective | inhibition of IL-12p40 gene expression [2]: little to no inhibition | inhibition of MCP-1 expression, comparison of the antibiotics [2]: more effective | P. acnes-induced IP-10 expression ([2]; p<0.001): completely abrogated
